Consider 17 compounds from US8952128B2, “Somatostatin-dopamine chimeric analogs” (priority 2012, dated 2015).

Numbered stars: 1 amine (or outer) side, 2 acyl side, 3 side chain; on linkers, the order of the positions; unused ones are H or OH. Bridge positions count the residues as written; N and C are the ends. Square brackets hold non-standard residues; d marks the D form. Peptide text beside a SMILES is read from it. X1 = CN1C[C@H](CSCCN(CCSC[C@@H]2C[C@@H]3c4cccc5[nH]cc(c45)C[C@H]3N(C)C2)[C@H](CCCCN[*:2])C(=O)[*:1])C[C@@H]2c3cccc4[nH]cc(c34)C[C@H]21; Phe(4-F) = N[C@@H](Cc1ccc(F)cc1)C(=O)O; 4Pal = N[C@@H](Cc1ccncc1)C(=O)O

The first test deals with hSSTR2 (Homo sapiens (Human), UniProt P30874). Put plainly: Intracellular calcium mobilization assay (FLIPR Calcium 4), hSSTR2.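 Further: agonist activity read as intracellular calcium rise in cells expressing human SSTR2, loaded with a calcium-sensitive dye for 60 min at 37 °C, measured by FLIPR.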 Format: cell-based. Particulars: calcium mobilization. (Calcium assays in cells follow changes in intracellular calcium, usually with a dye or a luminescent sensor.)
hSSTR2, sequence (P30874 whole entry): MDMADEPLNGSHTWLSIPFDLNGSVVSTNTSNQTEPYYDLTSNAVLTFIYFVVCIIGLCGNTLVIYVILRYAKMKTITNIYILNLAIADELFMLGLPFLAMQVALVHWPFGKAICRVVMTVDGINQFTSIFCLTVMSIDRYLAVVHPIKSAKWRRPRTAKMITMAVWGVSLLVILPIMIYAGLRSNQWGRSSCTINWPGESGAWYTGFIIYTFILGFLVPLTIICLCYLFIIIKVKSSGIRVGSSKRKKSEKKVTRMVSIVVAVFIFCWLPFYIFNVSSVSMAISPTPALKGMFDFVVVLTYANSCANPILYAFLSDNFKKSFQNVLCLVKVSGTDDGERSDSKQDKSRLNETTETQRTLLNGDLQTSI
Procedure: The ability of select compounds according to the present invention to activate hSSTR2 and hDRD2 was determined by the intracellular calcium mobilization assay using FLIPR Calcium 4 assay kit (Molecular Devices).
Cells expressing hSSTR2 or hDRD2 were plated in 384-well microplates in tissue culture media and incubated for 16-24 hours at 37° C. in a humidified atmosphere with 5% CO2. Medium was replaced by loading buffer containing Hank's buffered saline, 20 mM HEPES, 2.5 mM probenecid and Calcium 4 dye, and the plates were incubated at 37° C. for 60 minutes.
In the case of `C[C@@H](O)[C@@H]1NC(=O)[C@H](CCCCN)NC(=O)[C@@H](Cc2c[nH]c3ccccc23)NC(=O)[C@H](Cc2ccccc2)NC(=O)[C@H](Cc2ccccc2)NC(=O)[C@H](CCCNC(=N)N)NC(=O)[C@H](NC[C@H](Cc2ccc(O)cc2)NC(=O)CSC[C@@H]2C[C@@H]3c4cccc5[nH]cc(c45)C[C@H]3N(C)C2)CCCCNC(=O)[C@H](Cc2ccc(O)cc2)NC1=O` [Compound 33, Dop1-Tyr-psi(CH2NH)-cyclo(DLys-Arg-Phe-Phe-DTrp-Lys-Thr-Tyr)], the “improvement in EC50 and/or % Emax over Reference Compound B” value was “statistically significant improvement”.
With `C[C@@H](O)[C@@H]1NC(=O)[C@H](CCCCN)NC(=O)[C@@H](Cc2c[nH]c3ccccc23)NC(=O)[C@H](Cc2ccccc2)NC(=O)[C@H](Cc2ccccc2)NC(=O)[C@H](CCCNC(=N)N)NC(=O)[C@H](NC[C@H](Cc2ccc(O)cc2)NC(=O)CSC[C@@H]2C[C@@H]3c4cccc5[nH]cc(c45)C[C@H]3N(C)C2)CCCCNC(=O)[C@H](Cc2ccccc2)NC1=O` [Compound 32, Dop1-Tyr-psi(CH2NH)-cyclo(DLys-Arg-Phe-Phe-DTrp-Lys-Thr-Phe)], the “improvement in EC50 and/or % Emax over Reference Compound B” value is “statistically significant improvement”.

The same test, now with this note: maximal effect in percentage of the maximal effect of SRIF-14.
“Dop1-cyclo(DLys-Arg-Phe-Phe-DTrp-Lys-Thr-Phe) [Compound 44]”: the “hSSTR2 % Emax ± SEM” value is on record as 97.1 ± 5.9%.

The test is the same for the next values; noted with them: maximal effect in percentage of the maximal effect of SRIF-14; read-out: hSSTR2 % Emax ± SEM.
On to `C[C@@H](O)[C@@H]1NC(=O)[C@H](CCCCN)NC(=O)[C@@H](Cc2c[nH]c3ccccc23)NC(=O)[C@H](Cc2ccncc2)NC(=O)[C@H](Cc2ccccc2)NC(=O)[C@H](CCCNC(=N)N)NC(=O)[C@H](N(CCSC[C@@H]2C[C@@H]3c4cccc5[nH]cc(c45)C[C@H]3N(C)C2)CCSC[C@@H]2C[C@@H]3c4cccc5[nH]cc(c45)C[C@H]3N(C)C2)CCCCNC(=O)[C@H](Cc2ccc(O)cc2)NC1=O` [Compound 35, bis[Dop1-psi(CH2N)]-cyclo(DLys-Arg-Phe-4Pal-DTrp-Lys-Thr-Tyr)] (RF[4Pal][dW]KTY; linker N-C via X1), for which the Emax came out at 91.2 ± 11%.

Still in this test, the particulars now being: read-out: hSSTR2 % Emax ± SEM.
Take `CC(=O)N(CCCNC[C@@H]1C[C@@H]2c3cccc4[nH]cc(c34)C[C@H]2N(C)C1)[C@@H]1CCCCNC(=O)[C@H](Cc2ccc(F)cc2)NC(=O)[C@H]([C@@H](C)O)NC(=O)[C@H](CCCCN)NC(=O)[C@@H](Cc2c[nH]c3ccccc23)NC(=O)[C@H](Cc2ccccc2)NC(=O)[C@H](Cc2ccccc2)NC(=O)[C@H](CCCNC(=N)N)NC1=O` [Compound 22, 3-[N-(D-6-methyl-8β-ergolinylmethyl)]-aminopropionyl-psi(CH2NAc)-cyclo(DLys-Arg-Phe-Phe-DTrp-Lys-Thr-4FPhe)]: the Emax was 99.1 ± 12.6%.
For `C[C@@H](O)[C@@H]1NC(=O)[C@H](CCCCN)NC(=O)[C@@H](Cc2c[nH]c3ccccc23)NC(=O)[C@H](Cc2ccccc2)NC(=O)[C@H](Cc2ccccc2)NC(=O)[C@H](CCCNC(=N)N)NC(=O)[C@H](NCCSC[C@@H]2C[C@@H]3c4cccc5[nH]cc(c45)C[C@H]3N(C)C2)CCCCNC(=O)[C@H](Cc2ccc(F)c(F)c2)NC1=O` [Compound 6A, Dop1-psi(CH2NH)-cyclo(DLys-Arg-Phe-Phe-DTrp-Lys-Thr-3,4FPhe)], the Emax came to 99.5 ± 2.6%.
The same measure, in the same setting: in the case of `C[C@@H](O)[C@@H]1NC(=O)[C@H](CCCCN)NC(=O)[C@@H](Cc2c[nH]c3ccccc23)NC(=O)[C@H](Cc2ccccc2)NC(=O)[C@H](Cc2ccccc2)NC(=O)[C@H](CCCNC(=N)N)NC(=O)[C@H](NCCCS(=O)(=O)C[C@@H]2C[C@@H]3c4cccc5[nH]cc(c45)C[C@H]3N(C)C2)CCCCNC(=O)[C@H](Cc2ccc(F)cc2)NC1=O` [Compound 48, (D-6-methyl-8β-ergolinylmethyl)-sulfonylpropyl-cyclo(DLys-Arg-Phe-Phe-DTrp-Lys-Thr-4FPhe)] it was 95.5 ± 11.9%; in that of `C[C@@H](O)[C@@H]1NC(=O)[C@H](CCCCN)NC(=O)[C@@H](Cc2c[nH]c3ccccc23)NC(=O)[C@H](Cc2ccncc2)NC(=O)[C@H](Cc2ccccc2)NC(=O)[C@H](CCCNC(=N)N)NC(=O)[C@H](NC[C@H](CCCCNC(=O)C[S+]([O-])C[C@@H]2C[C@@H]3c4cccc5[nH]cc(c45)C[C@H]3N(C)C2)NC(=O)C[S+]([O-])C[C@@H]2C[C@@H]3c4cccc5[nH]cc(c45)C[C@H]3N(C)C2)CCCCNC(=O)[C@H](Cc2ccc(O)cc2)NC1=O` (stereo partly drawn) [Compound 16, Dop1(SO)-Lys[Dop1(SO)]-psi(CH2NH)-cyclo(DLys-Arg-Phe-4Pal-DTrp-Lys-Thr-Tyr)], 103 ± 2.3%; in that of `C[C@@H](O)[C@@H]1NC(=O)[C@H](CCCCN)NC(=O)[C@@H](Cc2c[nH]c3ccccc23)NC(=O)[C@H](Cc2ccccc2)NC(=O)[C@H](Cc2ccccc2)NC(=O)[C@H](CCCNC(=N)N)NC(=O)[C@H](NC[C@H](Cc2ccc(O)cc2)NC(=O)CSC[C@@H]2C[C@@H]3c4cccc5[nH]cc(c45)C[C@H]3N(C)C2)CCCCNC(=O)[C@H](Cc2ccc(O)cc2)NC1=O` [Compound 33, Dop1-Tyr-psi(CH2NH)-cyclo(DLys-Arg-Phe-Phe-DTrp-Lys-Thr-Tyr)], 95.7 ± 5.1%.
For the compound `C[C@@H](O)[C@@H]1NC(=O)[C@H](CCCCN)NC(=O)[C@@H](Cc2c[nH]c3ccccc23)NC(=O)[C@H](Cc2ccccc2)NC(=O)[C@H](Cc2ccccc2)NC(=O)[C@H](CCCNC(=N)N)NC(=O)[C@H](NCCSC[C@@H]2C[C@@H]3c4cccc5[nH]cc(c45)C[C@H]3N(C)C2)CCCCNC(=O)[C@H](Cc2ccccc2)NC1=O` [Compound 26, Dop1-psi(CH2NH)-cyclo(DLys-Arg-Phe-Phe-DTrp-Lys-Thr-Phe)], the Emax amounted to 90.2 ± 12.6%.
As for `C[C@@H](O)[C@@H]1NC(=O)[C@H](CCCCN)NC(=O)[C@@H](Cc2c[nH]c3ccccc23)NC(=O)[C@H](Cc2ccccc2)NC(=O)[C@H](Cc2ccccc2)NC(=O)[C@H](CCCNC(=N)N)NC(=O)[C@H](NC[C@H](Cc2ccc(O)cc2)NC(=O)CSC[C@@H]2C[C@@H]3c4cccc5[nH]cc(c45)C[C@H]3N(C)C2)CCCCNC(=O)[C@H](Cc2ccccc2)NC1=O` [Compound 32, Dop1-Tyr-psi(CH2NH)-cyclo(DLys-Arg-Phe-Phe-DTrp-Lys-Thr-Phe)], the Emax turned out to be 87.5 ± 4.3%.
As for `C[C@@H](O)[C@@H]1NC(=O)[C@H](CCCCN)NC(=O)[C@@H](Cc2c[nH]c3ccccc23)NC(=O)[C@H](Cc2ccccc2)NC(=O)[C@H](Cc2ccccc2)NC(=O)[C@H](CCCNC(=N)N)NC(=O)[C@H](NC[C@H](Cc2ccc(O)cc2)NC(=O)CS(=O)(=O)C[C@@H]2C[C@@H]3c4cccc5[nH]cc(c45)C[C@H]3N(C)C2)CCCCNC(=O)[C@H](Cc2ccc(F)cc2)NC1=O` [Compound 19, Dop1(SO2)-Tyr-psi(CH2NH)-cyclo(DLys-Arg-Phe-Phe-DTrp-Lys-Thr-4FPhe)], the Emax was found to be 99.5 ± 1.8%.
The same measure, in the same setting: to `C[C@@H](O)[C@@H]1NC(=O)[C@H](CCCCN)NC(=O)[C@@H](Cc2c[nH]c3ccccc23)NC(=O)[C@H](Cc2ccccc2)NC(=O)[C@H](Cc2ccccc2)NC(=O)[C@H](CCCNC(=N)N)NC(=O)[C@H](NCCCC[C@@H]2C[C@@H]3c4cccc5[nH]cc(c45)C[C@H]3N(C)C2)CCCCNC(=O)[C@H](Cc2ccc(F)cc2)NC1=O` [Compound 2, (D-6-methyl-8β-ergolinyl)-butanoyl-psi(CH2NH)-cyclo(DLys-Arg-Phe-Phe-DTrp-Lys-Thr-4FPhe)] belongs 100 ± 1.7%.
Consider `C[C@@H](O)[C@@H]1NC(=O)[C@H](CCCCN)NC(=O)[C@@H](Cc2c[nH]c3ccccc23)NC(=O)[C@H](Cc2ccccc2)NC(=O)[C@H](Cc2ccccc2)NC(=O)[C@H](CCCNC(=N)N)NC(=O)[C@@H](NC[C@H](Cc2ccc(O)cc2)NC(=O)CSC[C@@H]2C[C@@H]3c4cccc5[nH]cc(c45)C[C@H]3N(C)C2)CCCCNC(=O)[C@H](Cc2ccccc2)NC1=O` [Compound 31, Dop1-Tyr-psi(CH2NH)-cyclo(Lys-Arg-Phe-Phe-DTrp-Lys-Thr-Phe)], for which the Emax was found to be 85.1 ± 4.7%.
The same measure, in the same setting: in the case of `C[C@@H](O)[C@@H]1NC(=O)[C@H](CCCCN)NC(=O)[C@@H](Cc2c[nH]c3ccccc23)NC(=O)[C@H](Cc2ccccc2)NC(=O)[C@H](Cc2ccccc2)NC(=O)[C@H](CCCNC(=N)N)NC(=O)[C@H](N(CCSC[C@@H]2C[C@@H]3c4cccc5[nH]cc(c45)C[C@H]3N(C)C2)CCSC[C@@H]2C[C@@H]3c4cccc5[nH]cc(c45)C[C@H]3N(C)C2)CCCCNC(=O)[C@H](Cc2ccc(F)cc2)NC1=O` [Compound 39, bis[Dop1-psi(CH2N)]-cyclo(DLys-Arg-Phe-Phe-DTrp-Lys-Thr-4FPhe)] (RFF[dW]KT[Phe(4-F)]; linker N-C via X1) it was 87.1 ± 4.7%; in that of `C[C@@H](O)[C@@H]1NC(=O)[C@H](CCCCN)NC(=O)[C@@H](Cc2c[nH]c3ccccc23)NC(=O)[C@H](Cc2ccccc2)NC(=O)[C@H](Cc2ccccc2)NC(=O)[C@H](CCCNC(=N)N)NC(=O)[C@H](NCCSC[C@@H]2C[C@@H]3c4cccc5[nH]cc(c45)C[C@H]3N(C)C2)CCCCNC(=O)[C@H](Cc2cc(F)cc(F)c2)NC1=O` [Compound 6B, Dop1-psi(CH2NH)-cyclo(DLys-Arg-Phe-Phe-DTrp-Lys-Thr-3,5FPhe)], 95.2 ± 6.8%.
Turning to `CC(=O)N(CCCN(C(C)=O)[C@@H]1CCCCNC(=O)[C@H](Cc2ccc(F)cc2)NC(=O)[C@H]([C@@H](C)O)NC(=O)[C@H](CCCCN)NC(=O)[C@@H](Cc2c[nH]c3ccccc23)NC(=O)[C@H](Cc2ccccc2)NC(=O)[C@H](Cc2ccccc2)NC(=O)[C@H](CCCNC(=N)N)NC1=O)C[C@@H]1C[C@@H]2c3cccc4[nH]cc(c34)C[C@H]2N(C)C1` [Compound 28, 3-[N-acetyl-N-(D-6-methyl-8β-ergolinylmethyl)]-aminopropionyl-psi(CH2NAc)-cyclo(DLys-Arg-Phe-Phe-DTrp-Lys-Thr-4FPhe)], the Emax stood at 98.7 ± 2%.
Take `C[C@@H](O)[C@@H]1NC(=O)[C@H](CCCCN)NC(=O)[C@@H](Cc2c[nH]c3ccccc23)NC(=O)[C@H](Cc2ccccc2)NC(=O)[C@H](Cc2ccccc2)NC(=O)[C@H](CCCNC(=N)N)NC(=O)[C@H](NCCCCC[C@@H]2C[C@@H]3c4cccc5[nH]cc(c45)C[C@H]3N(C)C2)CCCCNC(=O)[C@H](Cc2ccc(F)cc2)NC1=O` [Compound 3, (D-6-methyl-8β-ergolinyl)-pentanoyl-psi(CH2NH)-cyclo(DLys-Arg-Phe-Phe-DTrp-Lys-Thr-4FPhe)]: the Emax came to 98.8 ± 19.2%.
Same read-out and setting: in the case of `C[C@@H](O)[C@@H]1NC(=O)[C@H](CCCCN)NC(=O)[C@@H](Cc2c[nH]c3ccccc23)NC(=O)[C@H](Cc2ccncc2)NC(=O)[C@H](Cc2ccccc2)NC(=O)[C@H](CCCNC(=N)N)NC(=O)[C@H](NC[C@H](CCCCNC(=O)C[S+]([O-])C[C@@H]2C[C@@H]3c4cccc5[nH]cc(c45)C[C@H]3N(C)C2)NC(=O)C[S+]([O-])C[C@@H]2C[C@@H]3c4cccc5[nH]cc(c45)C[C@H]3N(C)C2)CCCCNC(=O)[C@H](Cc2ccccc2)NC1=O` (stereo partly drawn) [Compound 17, Dop1(SO)-Lys[Dop1(SO)]-psi(CH2NH)-cyclo(DLys-Arg-Phe-4Pal-DTrp-Lys-Thr-Phe)] it was 105 ± 4.2%.

What is called Emax is the size of the effect at its maximum, as opposed to the concentration needed.
